Laboratory results as given in paper doi:10.1101/2023.11.24.568596v1 (biorxiv, 2023).
Values belong to the molecule of their own block, whether it stands above or below them.

Legend:
Details in all cases: binder
DAPK1 = DAPK1 (Homo sapiens, UniProt P53355)
AurA = target: T1, AurA (Homo sapiens, UniProt O14965)
T1 sequence (O14965 1-403): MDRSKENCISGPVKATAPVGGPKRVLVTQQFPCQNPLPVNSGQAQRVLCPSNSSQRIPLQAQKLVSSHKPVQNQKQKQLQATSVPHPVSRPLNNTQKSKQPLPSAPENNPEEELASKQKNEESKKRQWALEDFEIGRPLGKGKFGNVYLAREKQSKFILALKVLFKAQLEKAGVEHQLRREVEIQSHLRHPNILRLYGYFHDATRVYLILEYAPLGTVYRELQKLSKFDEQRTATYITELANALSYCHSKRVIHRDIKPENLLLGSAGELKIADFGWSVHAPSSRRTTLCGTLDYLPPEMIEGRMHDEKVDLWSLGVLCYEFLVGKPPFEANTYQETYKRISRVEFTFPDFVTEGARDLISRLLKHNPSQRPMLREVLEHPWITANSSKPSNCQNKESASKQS

CLK1 = CLK1 (Homo sapiens, UniProt P49759)
CLK3 = CLK3 (Homo sapiens, UniProt P49761)
FECH = target: T2, FECH (Homo sapiens, UniProt P22830)
T2 sequence (P22830 1-423): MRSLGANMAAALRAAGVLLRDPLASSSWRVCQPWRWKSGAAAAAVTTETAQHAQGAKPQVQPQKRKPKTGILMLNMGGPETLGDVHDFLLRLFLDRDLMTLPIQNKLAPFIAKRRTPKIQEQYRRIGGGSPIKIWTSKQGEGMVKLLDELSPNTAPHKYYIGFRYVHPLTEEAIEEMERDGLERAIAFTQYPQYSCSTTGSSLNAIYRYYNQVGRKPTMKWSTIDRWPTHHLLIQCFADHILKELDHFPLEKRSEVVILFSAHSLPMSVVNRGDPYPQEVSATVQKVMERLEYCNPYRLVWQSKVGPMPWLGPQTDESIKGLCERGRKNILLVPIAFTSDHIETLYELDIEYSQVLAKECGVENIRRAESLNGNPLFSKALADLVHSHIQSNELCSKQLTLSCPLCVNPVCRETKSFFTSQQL

FLT1 = FLT1 (Homo sapiens, UniProt P17948)
MST1 = target: T3, MST1 (Homo sapiens, UniProt Q13043)
T3 sequence (Q13043 1-487): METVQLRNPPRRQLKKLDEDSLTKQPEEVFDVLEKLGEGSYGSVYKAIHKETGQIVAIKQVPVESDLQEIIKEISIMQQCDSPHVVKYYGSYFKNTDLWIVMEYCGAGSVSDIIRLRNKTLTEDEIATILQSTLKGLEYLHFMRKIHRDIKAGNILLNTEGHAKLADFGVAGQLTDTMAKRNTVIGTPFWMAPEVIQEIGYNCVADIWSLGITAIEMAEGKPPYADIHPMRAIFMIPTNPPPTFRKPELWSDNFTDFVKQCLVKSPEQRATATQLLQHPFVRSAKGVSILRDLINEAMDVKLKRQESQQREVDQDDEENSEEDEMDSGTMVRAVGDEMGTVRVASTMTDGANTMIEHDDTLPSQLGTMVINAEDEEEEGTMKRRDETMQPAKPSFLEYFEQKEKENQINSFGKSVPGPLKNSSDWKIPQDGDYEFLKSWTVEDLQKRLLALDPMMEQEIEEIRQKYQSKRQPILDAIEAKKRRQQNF

MST3 = MST3 (Homo sapiens, UniProt Q9Y6E0)
OSR1 = OSR1 (Homo sapiens, UniProt O95747)
PAK1 = PAK1 (Homo sapiens, UniProt Q13153)
Sequence of PAK1 (Q13153 whole entry): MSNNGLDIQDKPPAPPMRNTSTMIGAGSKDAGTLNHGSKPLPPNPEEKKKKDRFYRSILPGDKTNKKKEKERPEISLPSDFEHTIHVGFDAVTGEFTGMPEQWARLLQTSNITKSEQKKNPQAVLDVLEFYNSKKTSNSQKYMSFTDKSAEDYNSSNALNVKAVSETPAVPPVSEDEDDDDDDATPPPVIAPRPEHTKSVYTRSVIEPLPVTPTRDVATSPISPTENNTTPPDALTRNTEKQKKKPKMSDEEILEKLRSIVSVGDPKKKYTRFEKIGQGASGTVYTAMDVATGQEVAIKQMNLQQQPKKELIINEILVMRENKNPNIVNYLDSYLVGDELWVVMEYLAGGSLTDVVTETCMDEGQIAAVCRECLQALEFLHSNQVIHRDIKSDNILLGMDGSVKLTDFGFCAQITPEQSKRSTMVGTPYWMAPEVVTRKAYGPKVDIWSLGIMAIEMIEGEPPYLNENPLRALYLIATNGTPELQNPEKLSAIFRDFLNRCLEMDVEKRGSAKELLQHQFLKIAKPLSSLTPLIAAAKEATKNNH

Sequence of CLK3 (P49761 whole entry): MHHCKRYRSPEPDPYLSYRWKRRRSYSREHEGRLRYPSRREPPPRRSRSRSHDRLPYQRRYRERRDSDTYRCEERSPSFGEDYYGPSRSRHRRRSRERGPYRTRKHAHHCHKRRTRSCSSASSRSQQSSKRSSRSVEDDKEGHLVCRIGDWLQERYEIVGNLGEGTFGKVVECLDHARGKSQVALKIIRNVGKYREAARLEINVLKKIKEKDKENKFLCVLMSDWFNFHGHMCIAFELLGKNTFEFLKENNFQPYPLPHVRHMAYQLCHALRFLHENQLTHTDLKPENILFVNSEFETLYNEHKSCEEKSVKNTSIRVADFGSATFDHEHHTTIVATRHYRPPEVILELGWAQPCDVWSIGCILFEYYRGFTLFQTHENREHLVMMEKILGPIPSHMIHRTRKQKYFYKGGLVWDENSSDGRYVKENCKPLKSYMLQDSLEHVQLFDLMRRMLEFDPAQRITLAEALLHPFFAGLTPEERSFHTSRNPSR
Sequence of DAPK1 (P53355 whole entry): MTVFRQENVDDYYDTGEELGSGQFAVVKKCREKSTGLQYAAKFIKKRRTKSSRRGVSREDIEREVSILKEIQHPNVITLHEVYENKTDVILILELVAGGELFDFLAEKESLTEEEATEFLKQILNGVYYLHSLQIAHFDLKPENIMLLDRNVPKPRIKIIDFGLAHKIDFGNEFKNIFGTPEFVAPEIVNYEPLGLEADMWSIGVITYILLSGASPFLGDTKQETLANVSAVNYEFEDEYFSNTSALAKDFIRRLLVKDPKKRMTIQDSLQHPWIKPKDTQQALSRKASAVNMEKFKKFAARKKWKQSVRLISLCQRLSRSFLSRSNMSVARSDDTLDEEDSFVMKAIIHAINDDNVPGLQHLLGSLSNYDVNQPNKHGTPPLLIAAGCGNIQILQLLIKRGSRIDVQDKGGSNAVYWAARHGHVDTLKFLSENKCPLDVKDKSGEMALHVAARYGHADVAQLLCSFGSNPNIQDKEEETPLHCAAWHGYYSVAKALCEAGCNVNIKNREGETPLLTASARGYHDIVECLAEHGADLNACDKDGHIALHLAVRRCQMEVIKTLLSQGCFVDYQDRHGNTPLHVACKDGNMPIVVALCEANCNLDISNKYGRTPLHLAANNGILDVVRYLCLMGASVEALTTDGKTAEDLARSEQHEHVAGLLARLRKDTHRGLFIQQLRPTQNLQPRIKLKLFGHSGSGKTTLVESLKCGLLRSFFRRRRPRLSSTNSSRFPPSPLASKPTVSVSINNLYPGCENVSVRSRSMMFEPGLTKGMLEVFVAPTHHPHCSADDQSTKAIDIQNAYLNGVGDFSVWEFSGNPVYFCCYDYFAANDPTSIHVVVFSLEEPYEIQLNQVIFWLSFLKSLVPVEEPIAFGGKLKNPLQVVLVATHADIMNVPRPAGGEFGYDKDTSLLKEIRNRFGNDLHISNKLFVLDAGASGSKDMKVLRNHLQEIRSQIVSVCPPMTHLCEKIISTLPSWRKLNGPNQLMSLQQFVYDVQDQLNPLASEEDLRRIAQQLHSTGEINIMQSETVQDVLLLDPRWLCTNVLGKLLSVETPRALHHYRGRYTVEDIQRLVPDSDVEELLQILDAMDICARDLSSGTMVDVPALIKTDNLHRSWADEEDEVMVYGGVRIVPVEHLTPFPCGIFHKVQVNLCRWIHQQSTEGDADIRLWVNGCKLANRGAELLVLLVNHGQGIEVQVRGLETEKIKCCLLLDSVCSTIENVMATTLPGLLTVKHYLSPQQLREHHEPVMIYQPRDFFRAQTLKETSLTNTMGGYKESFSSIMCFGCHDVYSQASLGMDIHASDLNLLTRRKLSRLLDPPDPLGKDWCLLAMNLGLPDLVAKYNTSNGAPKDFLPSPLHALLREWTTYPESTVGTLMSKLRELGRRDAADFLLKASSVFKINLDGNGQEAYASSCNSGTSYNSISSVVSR
Sequence of MST3 (Q9Y6E0 whole entry): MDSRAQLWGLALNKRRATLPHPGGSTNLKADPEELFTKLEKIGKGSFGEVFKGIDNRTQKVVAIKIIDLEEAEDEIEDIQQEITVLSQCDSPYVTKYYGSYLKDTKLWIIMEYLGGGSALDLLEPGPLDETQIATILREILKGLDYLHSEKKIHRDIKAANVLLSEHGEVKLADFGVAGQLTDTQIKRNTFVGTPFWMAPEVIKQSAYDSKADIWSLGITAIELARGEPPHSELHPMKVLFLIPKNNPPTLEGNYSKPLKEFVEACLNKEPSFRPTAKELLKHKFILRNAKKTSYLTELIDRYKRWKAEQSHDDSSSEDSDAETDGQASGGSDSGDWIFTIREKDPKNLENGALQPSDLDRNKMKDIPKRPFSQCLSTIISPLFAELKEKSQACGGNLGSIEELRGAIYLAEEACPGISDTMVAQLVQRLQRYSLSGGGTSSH
Sequence of CLK1 (P49759 whole entry): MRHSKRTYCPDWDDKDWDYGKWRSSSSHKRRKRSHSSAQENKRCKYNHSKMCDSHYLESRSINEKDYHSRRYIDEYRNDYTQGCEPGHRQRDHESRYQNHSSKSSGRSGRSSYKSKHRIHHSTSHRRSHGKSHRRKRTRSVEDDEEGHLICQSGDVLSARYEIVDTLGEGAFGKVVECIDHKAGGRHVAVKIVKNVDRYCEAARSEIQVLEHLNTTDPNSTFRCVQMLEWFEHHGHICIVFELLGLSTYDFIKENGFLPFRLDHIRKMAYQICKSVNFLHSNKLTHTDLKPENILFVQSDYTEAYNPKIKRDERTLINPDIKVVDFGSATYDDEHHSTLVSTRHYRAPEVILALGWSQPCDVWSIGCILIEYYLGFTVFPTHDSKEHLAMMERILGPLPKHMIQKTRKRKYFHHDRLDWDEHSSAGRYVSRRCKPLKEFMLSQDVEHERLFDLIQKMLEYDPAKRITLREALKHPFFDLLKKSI
Sequence of FLT1 (P17948 whole entry): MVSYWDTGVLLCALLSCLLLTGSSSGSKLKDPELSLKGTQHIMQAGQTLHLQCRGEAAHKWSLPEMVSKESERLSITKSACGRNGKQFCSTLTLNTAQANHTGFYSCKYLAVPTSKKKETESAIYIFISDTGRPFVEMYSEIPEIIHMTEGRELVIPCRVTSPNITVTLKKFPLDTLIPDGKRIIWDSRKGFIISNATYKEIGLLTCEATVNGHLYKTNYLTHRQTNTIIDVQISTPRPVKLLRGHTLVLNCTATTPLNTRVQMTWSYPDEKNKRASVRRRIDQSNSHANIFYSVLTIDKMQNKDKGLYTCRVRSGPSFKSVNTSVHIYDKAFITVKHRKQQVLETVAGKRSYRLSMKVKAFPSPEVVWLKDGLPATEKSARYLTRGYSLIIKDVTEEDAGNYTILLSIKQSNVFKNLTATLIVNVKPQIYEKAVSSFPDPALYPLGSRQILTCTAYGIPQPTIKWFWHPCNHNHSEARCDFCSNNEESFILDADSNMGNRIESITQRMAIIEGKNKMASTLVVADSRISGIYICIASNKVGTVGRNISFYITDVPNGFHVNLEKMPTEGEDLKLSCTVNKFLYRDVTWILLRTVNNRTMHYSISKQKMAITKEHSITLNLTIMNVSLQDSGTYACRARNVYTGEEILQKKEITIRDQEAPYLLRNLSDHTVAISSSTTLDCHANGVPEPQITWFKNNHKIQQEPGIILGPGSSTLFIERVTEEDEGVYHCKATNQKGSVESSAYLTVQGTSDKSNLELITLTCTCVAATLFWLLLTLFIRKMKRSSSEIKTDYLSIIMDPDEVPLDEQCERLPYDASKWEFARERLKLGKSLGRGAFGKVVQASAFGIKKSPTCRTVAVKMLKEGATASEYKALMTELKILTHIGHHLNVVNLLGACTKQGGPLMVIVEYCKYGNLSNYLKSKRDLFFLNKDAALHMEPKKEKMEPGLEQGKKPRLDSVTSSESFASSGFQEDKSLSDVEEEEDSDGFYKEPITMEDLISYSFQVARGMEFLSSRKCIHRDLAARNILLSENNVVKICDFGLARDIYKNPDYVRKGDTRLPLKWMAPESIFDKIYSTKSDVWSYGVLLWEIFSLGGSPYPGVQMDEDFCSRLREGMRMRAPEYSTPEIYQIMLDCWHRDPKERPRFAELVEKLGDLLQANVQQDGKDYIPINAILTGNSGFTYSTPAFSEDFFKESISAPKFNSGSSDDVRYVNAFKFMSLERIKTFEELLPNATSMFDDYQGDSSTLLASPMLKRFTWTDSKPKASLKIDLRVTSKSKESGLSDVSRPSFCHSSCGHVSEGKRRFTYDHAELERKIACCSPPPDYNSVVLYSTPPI

Structure (SMILES): CNc1ncc2cc(-c3ccc(-c4cccc(C)n4)cc3Cl)c(=O)n(CCC3CCNCC3)c2n1 [compound 22, 6-(2-Chloro-4-(6-methylpyridin-2-yl)phenyl)-2-(methylamino)-8-(2-(piperidin-4-yl)ethyl)pyrido[2,3-d]pyrimidin-7(8H)-one]
ΔTm 22 (DAPK1): -0.8 °C

Structure (SMILES): CNc1ncc2cc(-c3ccc(-c4cccc(C)n4)cc3Cl)c(=O)n(C[C@H]3CC[C@H](N)CC3)c2n1 [compound 23, 23]
ΔTm 23 (DAPK1): -0.4 °C

Structure (SMILES): Cc1cccc(-c2ccc(-c3cc4cnc(Nc5cc(C(F)(F)F)ccc5C)nc4n(CCCCN)c3=O)c(Cl)c2)n1 [compound 28, 8-(4-Aminobutyl)-6-(2-chloro-4-(6-methylpyridin-2-yl)phenyl)-2-((2-methyl-5-(trifluoromethyl)phenyl)amino)pyrido[2,3-d]pyrimidin-7(8H)-one]
ΔTm 28 (AurA): 6.5 °C
ΔTm 28 (CLK1): 0.6 °C
ΔTm 28 (CLK3): 0.0 °C
ΔTm 28 (FECH): 10.6 °C
ΔTm 28 (FLT1): 7.8 °C
ΔTm 28 (MST1): -1.6 °C
ΔTm 28 (MST3): 12.1 °C
ΔTm 28 (OSR1): 0.1 °C
ΔTm 28 (PAK1): 6.0 °C

Structure (SMILES): Cc1cccc(-c2ccc(-c3cc4cnc(Nc5ccc(O)cc5)nc4n(CCCCN)c3=O)c(Cl)c2)n1 [compound 31, 8-(4-Aminobutyl)-6-(2-chloro-4-(6-methylpyridin-2-yl)phenyl)-2-((4-hydroxyphenyl)amino) pyrido[2,3-d]pyrimidin-7(8H)-one]
ΔTm 31 (AurA): 4.4 °C
ΔTm 31 (CLK1): 0.8 °C
ΔTm 31 (CLK3): -0.5 °C
ΔTm 31 (FECH): 2.0 °C
ΔTm 31 (FLT1): 5.6 °C
ΔTm 31 (MST1): 2.0 °C
ΔTm 31 (MST3): 16.1 °C
ΔTm 31 (OSR1): 3.1 °C
ΔTm 31 (PAK1): 10.6 °C

Structure (SMILES): Cc1cccc(-c2ccc(-c3cc4cnc(Nc5ccc(C)c(O)c5)nc4n(CCCCN)c3=O)c(Cl)c2)n1 [compound 32, 8-(4-Aminobutyl)-6-(2-chloro-4-(6-methylpyridin-2-yl)phenyl)-2-((3-hydroxy-4-methylphenyl)amino)pyrido[2,3-d]pyrimidin-7(8H)-one]
ΔTm 32 (AurA): 5.9 °C
ΔTm 32 (CLK1): 0.7 °C
ΔTm 32 (CLK3): 0.1 °C
ΔTm 32 (FECH): 3.8 °C
ΔTm 32 (FLT1): 5.6 °C
ΔTm 32 (MST1): 1.6 °C
ΔTm 32 (MST3): 15.4 °C
ΔTm 32 (OSR1): 3.1 °C
ΔTm 32 (PAK1): 10.4 °C

Next, values leading:

ΔTm MRLW5 (20) (DAPK1): -0.8 °C
Structure (SMILES): CNc1ncc2cc(-c3ccc(-c4cccc(C)n4)cc3Cl)c(=O)n(CCCCN)c2n1 [compound 20, MRLW5]

ΔTm MR24 (24) (DAPK1): -0.8 °C
Structure (SMILES): Cc1cccc(-c2ccc(-c3cc4cnc(NC(CO)CO)nc4n(CCCCN)c3=O)c(Cl)c2)n1 [compound 24, 8-(4-Aminobutyl)-6-(2-chloro-4-(6-methylpyridin-2-yl)phenyl)-2-((1,3-dihydroxypropan-2-yl)amino)pyrido[2,3-d]pyrimidin-7(8H)-one]

ΔTm 25 (DAPK1): -1.0 °C
Structure (SMILES): Cc1cccc(-c2ccc(-c3cc4cnc(NCCCc5ccc(N)cc5)nc4n(CCCCN)c3=O)c(Cl)c2)n1 [compound 25, 8-(4-Aminobutyl)-2-((3-(4-aminophenyl)propyl)amino)-6-(2-chloro-4-(6-methylpyridin-2-yl)phenyl)pyrido[2,3-d]pyrimidin-7(8H)-one]

ΔTm MR26 (26) (DAPK1): -0.7 °C
Structure (SMILES): Cc1cccc(-c2ccc(-c3cc4cnc(NCCCN5CCOCC5)nc4n(CCCCN)c3=O)c(Cl)c2)n1 [compound 26, MR26]

ΔTm MR30 (27) (AurA): -0.3 °C
ΔTm MR30 (27) (CLK1): -0.7 °C
ΔTm MR30 (27) (CLK3): -0.3 °C
ΔTm MR30 (27) (FECH): 0.5 °C
ΔTm MR30 (27) (FLT1): 2.4 °C
ΔTm MR30 (27) (MST1): -1.0 °C
ΔTm MR30 (27) (MST3): 9.8 °C
ΔTm MR30 (27) (OSR1): -1.1 °C
ΔTm MR30 (27) (PAK1): 4.6 °C
Structure (SMILES): Cc1cccc(-c2ccc(-c3cc4cnc(NCCCN5CCCC5=O)nc4n(CCCCN)c3=O)c(Cl)c2)n1 [compound 27, MR30]

ΔTm 29 (AurA): -2.1 °C
ΔTm 29 (CLK1): -0.3 °C
ΔTm 29 (CLK3): 0.0 °C
ΔTm 29 (FECH): -0.4 °C
ΔTm 29 (FLT1): 3.9 °C
ΔTm 29 (MST1): -0.5 °C
ΔTm 29 (MST3): 14.3 °C
ΔTm 29 (OSR1): 0.3 °C
ΔTm 29 (PAK1): 7.1 °C
Structure (SMILES): Cc1cccc(-c2ccc(-c3cc4cnc(NCCCN5CCNCC5)nc4n(CCCCN)c3=O)c(Cl)c2)n1 [compound 29, 8-(4-Aminobutyl)-6-(2-chloro-4-(6-methylpyridin-2-yl)phenyl)-2-((3-(piperazin-1-yl)propyl)amino)pyrido[2,3-d]pyrimidin-7(8H)-one]

ΔTm 30 (AurA): 8.6 °C
ΔTm 30 (CLK1): -0.2 °C
ΔTm 30 (CLK3): -0.2 °C
ΔTm 30 (FECH): 0.5 °C
ΔTm 30 (FLT1): 4.3 °C
ΔTm 30 (MST1): 1.7 °C
ΔTm 30 (MST3): 15.5 °C
ΔTm 30 (OSR1): 2.3 °C
ΔTm 30 (PAK1): 10.7 °C
Structure (SMILES): Cc1cccc(-c2ccc(-c3cc4cnc(Nc5ccc(CCCO)cc5)nc4n(CCCCN)c3=O)c(Cl)c2)n1 [compound 30, 8-(4-Aminobutyl)-6-(2-chloro-4-(6-methylpyridin-2-yl)phenyl)-2-((4-(3-hydroxypropyl)phenyl)amino)pyrido[2,3-d]pyrimidin-7(8H)-one]
